From patent US5932466A, “Creatine amidinohydrolase gene, a novel recombinant DNA, and a process for producing creatine amidinohydrolase” (Kikkoman Corporation, priority 1994, dated 1999)

Tested on: Alcaligenes sp. KS-85 creatine amidinohydrolase, SEQ ID NO: 2 (recombinant, produced in E. coli)
Assay: Km determination of creatine amidinohydrolase from Lineweaver-Burk plots
Type: biochemical
Details: urea formed quantified, 50 mM phosphate buffer pH 7.7, 37° C.
Method: The measurement of enzyme activity was conducted under the following conditions. 1 U of enzyme activity is defined as the amount which causes formation of 1 μmol of urea per minute.
6.63 g of creatine is dissolved in 500 ml of 50 mM phosphate buffer, pH 7.7.
10 g of .rho.-dimethylaminobenzaldehyde is dissolved in 500 ml ethanol (guaranteed reagent) and then mixed with a mixture of 575 ml deionized water and 75 ml conc. hydrochloric acid.
1) 0.9 ml of Solution 1 is pre-incubated as the substrate at 37° C. for 5 minutes.
2) 0.1 ml enzyme solution (adjusted to about 1-2 U/ml) is mixed with the substrate and allowed to react at 37° C. for 10 minutes.
3) Then, 2 ml of Solution 2 is mixed with the reaction solution.
4) Then, the mixture is allowed to stand at 25° C. for 20 minutes, and the absorbance at 435 nm is determined (OD sample).
5) As the blank, 0.9 ml of Solution 1 is incubated at 37° C. for 10 minutes and then 2 ml of Solution 2 and 0.1 ml enzyme solution are mixed with Solution 1, and the mixture is allowed to stand at 25° C. for 20 minutes, and the absorbance at 435 nm is determined (OD blank).
U/ml=ΔOD×18.06*×dilution degree

CN(CC(=O)O)C(=N)N [creatine]
Km: 13 mM
